According to publication PMC11249637, “Interaction of the Atypical Tetracyclines Chelocardin and Amidochelocardin with Renal Drug Transporters” (ACS Pharmacology & Translational Science, 2024):

How the values were obtained:
[1] = design: method as in PMID 38047701; details: 15 mg/kg IV; up to 8 h post administration; cited from earlier work
mOat1 = target: T1, mOat1 (Mus musculus, UniProt Q8VC69); assay: Three-point uptake (substrate assessment) in mOat1-overexpressing HEK293 cells; type: in vitro ADME; details: 10 μM compound, 100 μM probenecid, 1 and 5 min
T1 construct: expressed in transfected cells; host or cells: HEK293
T1 sequence (Q8VC69 1-545): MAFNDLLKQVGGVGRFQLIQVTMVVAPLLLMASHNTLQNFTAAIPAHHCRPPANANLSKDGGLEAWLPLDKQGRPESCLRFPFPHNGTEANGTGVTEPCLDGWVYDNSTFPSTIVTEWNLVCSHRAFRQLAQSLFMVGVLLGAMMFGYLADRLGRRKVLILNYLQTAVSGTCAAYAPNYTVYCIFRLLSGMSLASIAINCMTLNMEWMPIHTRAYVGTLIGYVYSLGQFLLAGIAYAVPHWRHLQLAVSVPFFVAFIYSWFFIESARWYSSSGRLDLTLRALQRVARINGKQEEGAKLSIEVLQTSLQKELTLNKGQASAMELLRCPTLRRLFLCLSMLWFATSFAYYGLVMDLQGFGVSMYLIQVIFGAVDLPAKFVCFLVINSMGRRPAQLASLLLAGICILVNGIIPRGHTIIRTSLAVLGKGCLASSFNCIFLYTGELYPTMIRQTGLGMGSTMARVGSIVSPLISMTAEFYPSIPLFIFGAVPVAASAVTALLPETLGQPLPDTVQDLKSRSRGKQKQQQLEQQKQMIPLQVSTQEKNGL
Procedure: This is important to gain a better understanding of the underlying mechanisms of secretion into urine. Therefore, we assessed the amount of compound taken up by the vector and transporter cells at three different concentrations (1, 10, and 100 μM for mOat1 and mOct1; 0.1, 1, and 10 μM for mOat3) and at two different incubation periods (1 and 5 min for mOat1 and mOct1; 5 and 10 min for mOat3).
The incubation buffer contained CHD and CDCHD in a final concentration of 1, 10, and 100 μM. After 1 and 5 min, the incubation was terminated. In addition, the probe inhibitor probenecid (100 μM) was added in one concentration to 10 μM CHD and CDCHD, respectively, and after 1 and 5 min, the incubation was stopped. Inhibition of mOat1-mediated ^3H-PAH (10 μM) uptake by 100 μM probenecid was performed as a control experiment. After 1 min, the incubation was terminated. […]
First, a calibration curve was prepared by spiking different concentrations of CHD and CDCHD into the cell matrix. […] Samples were analyzed using an Agilent 1290 Infinity II HPLC system coupled to an AB Sciex QTrap6500plus mass spectrometer. […]
For statistical testing of differences in uptake ratio or for the inhibitory effect, an ordinary one-way ANOVA test was performed using GraphPad Prism 9.5.1 software. […] Michaelis–Menten kinetics were determined using the Michaelis–Menten algorithm of GraphPad Prism 9.5.1 software. […]

CC(=O)C1=C(O)[C@@H](N)[C@H]2Cc3c(c(O)c4c(O)c(C)ccc4c3C)C(=O)[C@@]2(O)C1=O [CHD, chelocardin]
urine levels of CHD compared to CDCHD [1]: 10 fold | uptake ratio (cells without vs with probenecid), mOat1 (mOat1): < 1
